Reference: US20120245121A1, “METHODS FOR IMPROVING BONE HEALTH IN INFANTS USING LONG CHAIN POLYUNSATURATED FATTY ACIDS” (ABBOTT LABORATORIES, priority 2011, published 2012)

Columns and labels:
Format in all cases: in vivo, Sprague-Dawley rats
rat offspring [1] = experiment: Micro-CT trabecular architecture and bone length of rat offspring after maternal diet supplementation
Method: Fifty 10-week-old pregnant Sprague-Dawley rats at the eleventh day of gestation (Charles Rivers Laboratories, Orleans Cedex, France) are housed under standardized environmental conditions (22° C., relative humidity of 50%, artificial lighting on for 12 hours/day) and are given free access to deionized water during the test period. The rats are randomly divided into five groups of feeding (n=10/group): (1) Control Group (“Control”), who receives a standard purified rodent diet (SPRD); […] (3) Prebiotic group (“Prebiotic”), who receives the SPRD containing 7.5% of the total carbohydrate as inulin-type fructans (Synergy-1®, Orafti, Belgium); […] During their suckling period, the pups receive only the dam's milk. […] Sacrifices of rat pups are carried out at birth, weaning and at the end of the adolescence period. The whole bone mineral density (BMD) and bone mineral content (BMC) of the skeleton are measured at birth and at weaning by using a pDEXA densitometer (Norland Corp., Fort Atkinson, Wis., USA). In adolescent offspring, the determination of BMC and BMD are analyzed in isolated bones (femur, tibia and vertebrae). Determination of the trabecular architecture parameters (trabecular thickness, separation and number), bone length and bone volume fraction (BV/TV) is analyzed by Micro-computed tomography (micro-CT). Micro-CT analysis is carried out by the Bone & Joint Research Group (University of Southampton, UK) and cortical parameters are performed by SCANCO Medical AG (Brüttisellen, Switzerland). Micro-computed tomography (micro-CT) is a technique for the nondestructive assessment and analysis of the three-dimensional trabecular and cortical bone structural properties. Scanning with micro-CT can be achieved at resolutions as low as 5 μm, allowing for the determination of porosities and subtle modeling and remodeling events of the bone tissue. Furthermore, true three-dimensional image reconstructions permit the assessment of bone microarchitecture as a three dimensional structure, providing critical information to images collected through histomorphometry. In the present Example, femoral, tibia and vertebra cancellous bones are assessed using Metris (XTek) Benchtop 160Xi CT scanner (University of Southampton) and vertebra cortical bone is assessed using MicroCT-40 computed tomography system (Scanco Medical, Basserdorf, Switzerland). […] Results are expressed as mean±SEM, and the probability level at which the differences are considered significant is set at p<0.05. One-way ANOVA is used to evaluate differences attributable to the diet in the different markers, previously testing the homogeneity of variances by Levene's. A posteriori post hoc tests are carried out by the Dunnet test.

rat offspring [2] = experiment: Micro-CT vertebra cortical architecture of rat offspring after maternal diet supplementation; settings: adolescence
Method: Fifty 10-week-old pregnant Sprague-Dawley rats at the eleventh day of gestation (Charles Rivers Laboratories, Orleans Cedex, France) are housed under standardized environmental conditions (22° C., relative humidity of 50%, artificial lighting on for 12 hours/day) and are given free access to deionized water during the test period. The rats are randomly divided into five groups of feeding (n=10/group): (1) Control Group (“Control”), who receives a standard purified rodent diet (SPRD); […] (3) Prebiotic group (“Prebiotic”), who receives the SPRD containing 7.5% of the total carbohydrate as inulin-type fructans (Synergy-1®, Orafti, Belgium); […] During their suckling period, the pups receive only the dam's milk. […] Sacrifices of rat pups are carried out at birth, weaning and at the end of the adolescence period. The whole bone mineral density (BMD) and bone mineral content (BMC) of the skeleton are measured at birth and at weaning by using a pDEXA densitometer (Norland Corp., Fort Atkinson, Wis., USA). In adolescent offspring, the determination of BMC and BMD are analyzed in isolated bones (femur, tibia and vertebrae). Determination of the trabecular architecture parameters (trabecular thickness, separation and number), bone length and bone volume fraction (BV/TV) is analyzed by Micro-computed tomography (micro-CT). Micro-CT analysis is carried out by the Bone & Joint Research Group (University of Southampton, UK) and cortical parameters are performed by SCANCO Medical AG (Brüttisellen, Switzerland). In the present Example, femoral, tibia and vertebra cancellous bones are assessed using Metris (XTek) Benchtop 160Xi CT scanner (University of Southampton) and vertebra cortical bone is assessed using MicroCT-40 computed tomography system (Scanco Medical, Basserdorf, Switzerland). […] Micro-CT analysis also allows for the determination of various quality properties of the cortical bone. The bone fragility is influenced not only by the architecture but also by the tissue “quality”. The strength of a bone as an organ depends on the material properties of bone as a tissue. Stiffness, or the resistance of the whole bone to deformation by a load, is a key material property and requires a destructive mechanical technique if measurements are done in vivo. The non-destructive analysis of the volumetric bone mineral density of cortical bone (cortical vBMD) by micro CT has an approximately linear relationship with the stiffness of the cortical bone. Cortical thickness (C.Th) is one of the variables that helps to evaluate the modeling-derived changes provoked by growth. The cortical porosity (C.Sp) reflects the intracortical remodeling in the bone. […] Results are expressed as mean±SEM, and the probability level at which the differences are considered significant is set at p<0.05. […]

rat offspring [3] = experiment: pDEXA bone mineral density (BMD) and bone mineral content (BMC) of rat offspring after maternal diet supplementation; settings: for lumbar vertebra BMC with respect to Control group / lumbar vertebra BMD with respect to Control group: adolescence
Method: Fifty 10-week-old pregnant Sprague-Dawley rats at the eleventh day of gestation (Charles Rivers Laboratories, Orleans Cedex, France) are housed under standardized environmental conditions (22° C., relative humidity of 50%, artificial lighting on for 12 hours/day) and are given free access to deionized water during the test period. The rats are randomly divided into five groups of feeding (n=10/group): (1) Control Group (“Control”), who receives a standard purified rodent diet (SPRD); […] (3) Prebiotic group (“Prebiotic”), who receives the SPRD containing 7.5% of the total carbohydrate as inulin-type fructans (Synergy-1®, Orafti, Belgium); […] During their suckling period, the pups receive only the dam's milk. […] Sacrifices of rat pups are carried out at birth, weaning and at the end of the adolescence period. The whole bone mineral density (BMD) and bone mineral content (BMC) of the skeleton are measured at birth and at weaning by using a pDEXA densitometer (Norland Corp., Fort Atkinson, Wis., USA). In adolescent offspring, the determination of BMC and BMD are analyzed in isolated bones (femur, tibia and vertebrae). Determination of the trabecular architecture parameters (trabecular thickness, separation and number), bone length and bone volume fraction (BV/TV) is analyzed by Micro-computed tomography (micro-CT). Micro-CT analysis is carried out by the Bone & Joint Research Group (University of Southampton, UK) and cortical parameters are performed by SCANCO Medical AG (Brüttisellen, Switzerland). DEXA scan is a technique used in the clinical practice for the analysis of bone health. Two main bone properties can be measured by this technique: Bone Mineral Content (BMC) and areal Bone Mineral Density (BMD). BMC determines the mass of mineral present in the whole body or in the selected skeletal region. BMC changes reflect the result of the metabolic “mass” balance between bone formation and bone destruction. BMC represented relative to the projected bone area refers to BMD. […] The manufacturer's software for research in small animals calculates BMC and BMD for the isolated bone. Femur is measured from the femoral neck to the knee joint. Tibia is measured from the knee joint to the joint between tibia and calcaneus, also including fibula. […] Results are expressed as mean±SEM, and the probability level at which the differences are considered significant is set at p<0.05. One-way ANOVA is used to evaluate differences attributable to the diet in the different markers, previously testing the homogeneity of variances by Levene's. A posteriori post hoc tests are carried out by the Dunnet test.

[4] = at delivery, appendicular bones

Compound	vertebra BV/TV enhanced in comparison with Control group (rat offspring [1]; adolescence) [%]	vertebra trabecular separation respective to Control group (rat offspring [1]; adolescence)	vertebra trabecular thickness enhanced in comparison with Control group (rat offspring [1]; adolescence) [%]	trabecular number of femur and tibia vs Control group (rat offspring [1]; [4])	trabecular thickness of femur and tibia vs Control group (rat offspring [1]; [4])	femur length represented versus body weight (rat offspring [1]; at delivery, no difference to Control group)	trabecular separation of femur and tibia vs Control group (rat offspring [1]; at delivery, statistical differences not achieved)	increase in vertebra trabecular thickness respective to Control group (rat offspring [1]; at weaning) [%]	vertebra BV/TV ratio respective to Control group (rat offspring [1]; at weaning)	vertebra trabecular separation respective to Control group (rat offspring [1]; at weaning)	vertebra cortical porosity (rat offspring [2])	vertebra cortical vBMD (rat offspring [2])	vertebrae cortical thickness (rat offspring [2])	lumbar vertebra BMC with respect to Control group (rat offspring [3])	lumbar vertebra BMD with respect to Control group (rat offspring [3])	vertebra structural parameters (BV/TV, trabecular thickness) (rat offspring [1]; adolescence)	vertebra cortical features (rat offspring [2])	whole body BMC relative to Control group (rat offspring [3]; at weaning)
O=C([O-])[O-].[Ca+2] [Calcium, calcium carbonate]	22	significant decrease	17	greater	lower	0.572±0.04	decrease	~30	statistically different	statistically different	decrease	increase	without significantly affecting	no differences	no differences			
Vitamin D														no differences	no differences	No effect	does not show any improvement	lower
